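Five compound concentrations were applied to cells in 96-well plates for 48 hours; endpoints were derived by simple linear interpolation of the resulting dose-response curve. TGI marks complete inhibition of growth.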
Columns and labels:
Assay in all cases: inhibition of tumour cell growth, NCI panel, 48 h
[1] = test system: SNB-78 CNS
[2] = test system: SW-620 colon
[3] = test system: SF-539 CNS
[4] = test system: IGROV1 ovarian
[5] = test system: HCC-2998 colon
[6] = test system: HCT-15 colon
[7] = test system: SK-OV-3 ovarian
[8] = test system: EKVX NSCLC
[9] = test system: M19-MEL melanoma
[10] = test system: NCI-H226 lung
[11] = test system: SF-268 CNS
[12] = test system: SN12C renal
[13] = test system: DLD-1 colon
[14] = test system: HOP-62 NSCLC
[15] = test system: HT29 colon
[16] = test system: XF 498 CNS
[17] = test system: LOX IMVI melanoma
[18] = test system: HL-60(TB) leukemia
[19] = test system: A549 NSCLC
[20] = test system: RPMI-8226 leukemia
[21] = test system: OVCAR-4 ovarian
[22] = test system: HCT-116 colon
[23] = test system: SNB-19 CNS
[24] = test system: SNB-75 CNS
[25] = test system: OVCAR-5 ovarian
[26] = test system: UO-31 renal
[27] = test system: OVCAR-8 ovarian
[28] = test system: TK-10 renal
[29] = test system: SK-MEL-5 melanoma
[30] = test system: 786-0 renal
[31] = test system: K-562 leukemia
[32] = test system: COLO 205 colon
[33] = test system: UACC-62 melanoma
[34] = test system: LXFL 529 NSCLC
[35] = test system: MOLT-4 leukemia
[36] = test system: SK-MEL-28 melanoma
[37] = test system: NCI-H460 lung
[38] = test system: CCRF-CEM leukemia
[39] = test system: NCI-H23 lung
[40] = test system: DMS 114 small cell lung
[41] = test system: UACC-257 melanoma
[42] = test system: SR leukemia
[43] = test system: DMS 273 small cell lung
[44] = test system: KM20L2 colon
[45] = test system: U251 CNS
[46] = test system: RXF 393 renal
[47] = test system: M14 melanoma
[48] = test system: HOP-18 NSCLC
[49] = test system: SF-295 CNS
[50] = test system: MALME-3M melanoma
[51] = test system: KM12 colon
[52] = test system: CAKI-1 renal
[53] = test system: OVCAR-3 ovarian
[54] = test system: NCI-H522 lung
[55] = test system: SK-MEL-2 melanoma
[56] = test system: ACHN renal

Measured: TGI

CCN(CC)CC(=O)NC1c2ccccc2Oc2ccccc21
not listed: [48] | [49] | [50] | [51] | [52] | [53] | [54] | [55] | [56]
> 100 µM: all other assays above

O=C(Cc1ccccc1)NN1C(=O)C(Cl)C1c1ccc(Cl)cc1 (stereo unspecified)
not listed: [3] | [9]
> 100 µM: all other assays above

— PubChem BioAssay (NCI)
